Source: the supplement of paper PMC10307832

Legend:
Assay in all cases: relative viability (nuclei count vs DMSO), 5 days (fraction); higher = more cells survive
KN-93 + Navitoclax = compound: CN(C/C=C/C1=CC=C(C=C1)Cl)CC2=CC=CC=C2N(CCO)S(=O)(=O)C3=CC=C(C=C3)OC [KN-93] + CC1(C)CCC(c2ccc(Cl)cc2)=C(CN2CCN(c3ccc(C(=O)NS(=O)(=O)c4ccc(N[C@H](CCN5CCOCC5)CSc5ccccc5)c(S(=O)(=O)C(F)(F)F)c4)cc3)CC2)C1 [Navitoclax] (partner 0.5 µM)
Summary of the method: (§1)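 Relative viability divides the nuclei count in treated wells by that in vehicle wells. Lung cancer cell lines were seeded in 1536-well plates, dosed by pin tool the next day, and fixed and stained after 5 days in one step with final 0.05% Triton X-100, 1% formaldehyde and 1 ug/ml Hoechst. Dosing was a single drug or a fixed anchor-drug dose plus five library-drug doses (not always all listed) in √10 steps, and values are medians of duplicate plates imaged at 4×.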

KN-93 + Lapatinib = compound: CN(C/C=C/C1=CC=C(C=C1)Cl)CC2=CC=CC=C2N(CCO)S(=O)(=O)C3=CC=C(C=C3)OC [KN-93] + CS(=O)(=O)CCNCc1ccc(-c2ccc3ncnc(Nc4ccc(OCc5cccc(F)c5)c(Cl)c4)c3c2)o1 [Lapatinib] (partner 2 µM)
Summary of the method: as §1

KN-93 + Bortezomib = compound: CN(C/C=C/C1=CC=C(C=C1)Cl)CC2=CC=CC=C2N(CCO)S(=O)(=O)C3=CC=C(C=C3)OC [KN-93] + CC(C)C[C@H](NC(=O)[C@H](Cc1ccccc1)NC(=O)c1cnccn1)B(O)O [Bortezomib] (partner 0.002 µM)
Summary of the method: as §1

KN-93 + Pictilisib = compound: CN(C/C=C/C1=CC=C(C=C1)Cl)CC2=CC=CC=C2N(CCO)S(=O)(=O)C3=CC=C(C=C3)OC [KN-93] + CS(=O)(=O)N1CCN(Cc2cc3nc(-c4cccc5[nH]ncc45)nc(N4CCOCC4)c3s2)CC1 [Pictilisib] (partner 1 µM)
Summary of the method: as §1

KN-93 + OSI-027 = compound: CN(C/C=C/C1=CC=C(C=C1)Cl)CC2=CC=CC=C2N(CCO)S(=O)(=O)C3=CC=C(C=C3)OC [KN-93] + COc1cccc2cc(-c3nc([C@H]4CC[C@H](C(=O)O)CC4)n4ncnc(N)c34)[nH]c12 [OSI-027] (partner 0.5 µM)
Summary of the method: as §1

Row | Cell Line | relative viability (KN-93 + Navitoclax; first compound 0.08 µM) | relative viability (KN-93 + Navitoclax; first compound 0.253 µM) | relative viability (KN-93 + Navitoclax; first compound 2.53 µM) | relative viability (KN-93 + Navitoclax; first compound 8 µM) | relative viability (KN-93 + Lapatinib; first compound 0.08 µM) | relative viability (KN-93 + Lapatinib; first compound 0.253 µM) | relative viability (KN-93 + Lapatinib; first compound 2.53 µM) | relative viability (KN-93 + Lapatinib; first compound 8 µM) | relative viability (KN-93 + Bortezomib; first compound 0.08 µM) | relative viability (KN-93 + Bortezomib; first compound 0.253 µM) | relative viability (KN-93 + Bortezomib; first compound 2.53 µM) | relative viability (KN-93 + Bortezomib; first compound 8 µM) | relative viability (KN-93 + Pictilisib; first compound 0.08 µM) | relative viability (KN-93 + Pictilisib; first compound 0.253 µM) | relative viability (KN-93 + Pictilisib; first compound 2.53 µM) | relative viability (KN-93 + Pictilisib; first compound 8 µM) | relative viability (KN-93 + OSI-027; first compound 0.08 µM) | relative viability (KN-93 + OSI-027; first compound 0.253 µM) | relative viability (KN-93 + OSI-027; first compound 2.53 µM) | relative viability (KN-93 + OSI-027; first compound 8 µM)
1 | NCI-H1437 | 0.92 | 1.23 | 1.07 | 0.476 | 0.632 | 0.963 | 0.875 | 0.425 | 0.465 | 0.564 | 0.53 | 0.365 | 0.416 | 0.379 | 0.394 | 0.301 | 0.885 | 0.984 | 0.852 | 0.651
2 | ABC-1 |  |  |  |  | 0.92 | 1.64 | 1.18 | 1.05 | 0.322 | 0.247 | 0.287 | 0.26 | 0.638 | 0.721 | 0.738 | 0.264 | 0.455 | 0.294 | 0.509 | 0.257
3 | NCI-H1703 | 0.936 | 1.11 | 1.04 | 0.179 | 1.06 | 1.41 | 1.03 | 0.265 | 0.381 | 0.302 | 0.418 | 0.166 | 0.257 | 0.307 | 0.211 | 0.247 |  |  |  | 
4 | 201T | 1.23 | 1.21 | 1.19 | 1.07 | 1.1 | 0.955 | 1.03 | 0.988 | 1.11 | 1.15 | 1.07 | 0.554 | 0.756 | 0.583 | 0.672 | 0.63 | 0.789 | 0.558 | 0.884 | 0.373
5 | NCI-H596 | 0.996 | 0.891 | 0.966 | 0.575 | 1.05 | 0.945 | 1.23 | 0.985 | 1.02 | 1.29 | 1.18 | 0.942 | 0.419 | 0.361 | 0.381 | 0.368 | 0.769 | 0.726 | 0.755 | 0.252
6 | A549 | 1.06 | 1.33 | 1.44 | 0.513 | 0.863 | 0.937 | 1.01 | 0.385 |  |  |  |  |  | 0.609 | 1 | 0.225 |  |  |  | 
7 | NCI-H650 |  |  |  |  | 1.19 | 1.04 | 1.29 | 0.615 | 0.959 | 0.915 | 1.25 | 0.454 | 0.906 | 0.892 | 1.06 | 0.605 | 0.502 | 0.536 | 0.576 | 0.443
8 | NCI-H441 |  | 0.573 | 0.747 | 0.238 |  |  |  |  |  | 0.672 | 0.365 | 0.22 | 0.356 | 0.53 | 0.591 | 0.3 | 0.603 | 0.672 | 0.623 | 0.479
9 | ChaGo-K-1 | 1.58 | 1.08 | 1 | 0.54 |  |  |  |  | 1.33 | 1.18 | 1.15 | 0.536 | 1.27 | 0.851 | 0.718 | 0.454 | 0.585 | 0.512 | 0.449 | 0.426
10 | LK-2 | 0.743 | 0.677 | 1.12 | 0.567 | 0.972 | 1.26 | 1.02 | 0.862 |  |  |  |  | 0.683 | 0.679 | 0.725 | 0.314 | 0.207 | 0.182 | 0.189 | 0.165
11 | NCI-H1563 |  |  |  |  | 0.946 | 1 | 0.937 | 0.641 | 1 | 0.884 | 0.778 | 0.675 | 0.661 | 0.618 | 0.648 | 0.608 | 0.841 | 0.789 | 0.745 | 0.566
12 | NCI-H1944 | 1.09 | 1.01 | 1.04 | 0.896 | 0.84 | 0.793 | 0.96 | 0.771 |  |  |  |  | 0.372 | 0.292 | 0.332 | 0.34 | 0.403 | 0.376 | 0.383 | 0.31
13 | NCI-H661 |  |  |  |  | 0.484 | 0.511 | 0.448 | 0.447 | 0.735 | 0.901 | 0.713 | 0.665 | 0.396 | 0.417 | 0.336 | 0.253 | 0.693 | 0.741 | 0.606 | 0.273
14 | NCI-H1395 | 1.11 | 1.22 | 1.34 | 0.566 | 1.63 | 1.11 | 1.04 | 0.679 |  |  |  |  | 0.654 | 0.682 | 1.02 | 0.477 | 0.702 | 0.666 | 0.707 | 0.469
15 | NCI-H1793 |  | 0.398 | 0.385 | 0.244 |  | 0.804 | 0.992 | 0.556 |  |  |  |  |  | 0.334 | 0.382 | 0.267 | 0.242 | 0.245 | 0.261 | 0.152
16 | IA-LM | 0.975 | 0.826 | 1.23 | 0.439 | 0.837 | 0.831 | 1.31 | 0.572 | 0.738 | 0.875 | 0.991 | 0.481 | 0.27 | 0.309 | 0.767 | 0.349 |  |  |  | 
17 | LCLC-103H |  |  |  |  |  |  |  |  | 0.968 | 1.07 | 1.16 | 0.949 | 0.617 | 0.581 | 0.614 | 0.537 | 0.446 | 0.455 | 0.356 | 0.309
